Tests used:
rats = experiment: Behavioural test in rats, modified after Irwin; format: in vivo
From the text: 2. Behavioural test in rats, modified after Irwin, Psychopharmacologica. (Berl.); 13, pgs. 222-257 (1968).

[1] = Prolongation of evipan sodium narcosis; format: in vivo
From the text: 3. Prolongation of evipan sodium narcosis, Arch. Int. Pharmacodyn; 126, pgs. 219-227 (1960).

[2] = Acute toxicity (LD50), intragastral administration, male mice; conditions: mouse, in vivo, po
dogs = experiment: Alphalysis (alphalytic activity) in dogs; format: in vivo; conditions: for alphalytic activity: from 1 mg./kg. i.v.
Description: 4. Alphalysis, Medizinische Wochenschrift; 81, pg. 352 (1951).
The alphalytic activity of the compounds of Examples 8 and 9 was tested on dogs.

| Compound | catatonia (rats; 150 mg./kg.) | lowering of the body temperature (rats; 150 mg./kg.) | ptosis (rats; 150 mg./kg.) | sedation (rats; 150 mg./kg.) | prolongation of the sleeping time in % ([1]; dosage 50 mg./kg.) [%] | prolongation of the sleeping time in % ([1]; dosage 100 mg./kg.) [%] | LD50 [2] [mg/kg] | behaviour (change of symptoms versus 150 mg./kg.) (rats; 300 mg./kg., symptoms at 150 mg./kg.: sedation, catatonia, lowering of the body temperature) | alphalytic activity (dogs) | muscle tonus (rats; 150 mg./kg.) | catatonia (rats; 300 mg./kg.) | lowering of the body temperature (rats; 300 mg./kg.) | muscle tonus (rats; 300 mg./kg.) | ptosis (rats; 300 mg./kg.) | sedation (rats; 300 mg./kg.) | alphalytic action after intraduodenal administration (dogs; intraduodenal) |
| --- | --- | --- | --- | --- | --- | --- | --- | --- | --- | --- | --- | --- | --- | --- | --- | --- |
| COc1cc2c(cc1OC)-c1c(OC)c(OC)cc3c1C(CNC3)C2 (racemic) [Example 7, (±)-5,6,6a,7-Tetrahydro-1,2,9,10-tetramethoxy-4H-dibenz(de,g)isoquinolin] | catatonia | lowering of the body temperature | ptosis | sedation | 147 | 324 | ~600 |  |  |  |  |  |  |  |  |  |
| COc1cc2c3c(c1OC)CN(C)CC3Cc1cc3c(cc1-2)OCO3 (racemic) [Example 9, (±)-5,6,6a,7-tetrahydro-2,3-dimethoxy-9,10-methylenedioxy-5-methyl-4H-dibenz(de,g)isoquinoline] | catatonia | lowering |  | sedation | 339 | 417 | ~1200 | strengthening of the symptoms | a distinct alphalytic activity is detectable |  |  |  |  |  |  |  |
| COc1cc2c(cc1OC)-c1cc(OC)c(OC)c3c1C(C2)CN(C)C3 (racemic) [Example 10, (±)-5,6,6a,7-Tetrahydro-2,3,9,10-tetramethoxy-5-methyl-4H-dibenz(de,g)isoquinoline] | catatonia |  |  | sedation | 268 | 347 | ~1200 |  |  | reduced muscle tonus |  |  |  |  |  |  |
| COc1cc2c(cc1OC)-c1c(OC)c(OC)cc3c1C(C2)CN(C)C3 (racemic) [Example 8, (±)-5,6,6a,7-Tetrahydro-1,2,9,10-tetramethoxy-5-methyl-4H-dibenz(de,g)isoquinoline] |  |  |  |  | 64 |  | 800 |  | a distinct alphalytic activity is detectable |  | catatonia | lowering | reduced muscle tonus | ptosis | sedation | the action could also be confirmed after intraduodenal administration |

Source: patent publication US4425350A, “5,6,6a,7-Tetrahydro-4H-dibenz(de,g)-isoquinoline derivatives, and their use for treating central nervous system disorders” (Warner-Lambert Company, priority 1980, dated 1984)
